Laboratory results taken from US7709539B2, “Therapeutic use of resveratrol for hyperglycemia” (Chang Gung University, priority 2004, dated 2010).

Assays:
Assay type in all cases: in vivo, rat
normal SD rats = experiment: Hypoglycemic effect in normal SD rats (blood sugar); details: for reduction of blood sugar: normal SD rats, 90 min after drug feeding
Experimental: Eight week-old Sprague Dawley (SD) rats (body weight from 200 gm to 250 gm) were maintained in the Animal Center of the Chang (Jung Memorial Hospital, under an ambient temperature of 25±1° C. and a light-dark period of 12 hrs. Animals were fed with normal chow and water. Resveratrol was first dissolved in DMS0 and diluted to 0.05 mg, 0.1 mg and 0.5 mg per ml wit normal saline. Animals were fed with desired amounts of drug solutions though tubing from the mouth into the stomach. Normal, IDDM, and NIDDM SD rats were fasted for 8 hrs and anesthetized by pentobarbital (30 mg/kg, ip). Animals were fed with different dosages of resveratrol (0.05 mg, 0.1 mg, or 0.5 mg per kg body weight), and blood samples were then collected from femoral vein at the time points 0, 60, 90, and 120 min. Ten μl plasma was mixed with 1 ml glucose kit reagent and incubated at 37° C. for 10 min. The blood sugar level was determined as described. […]. Data were expressed as mean±standard error (S.E.). Statistical analysis was performed using ANOVA (analysis of variance) followed by Dunnett test, and the significant difference was set at P<0.05. Male SD rats were fed with resveratrol at 0.05 mg, 0.1 mg, or 0.5 mg per kg body weight and plasma glucose level was measured at 90 min after drug feeding.

NIDDM SD rats = experiment: Antihyperglycemic effect in NIDDM SD rats (nicotinamide/STZ-induced); details: 0.1 mg/kg oral
Experimental: Resveratrol was first dissolved in DMS0 and diluted to 0.05 mg, 0.1 mg and 0.5 mg per ml wit normal saline. Animals were fed with desired amounts of drug solutions though tubing from the mouth into the stomach. B. NIDDM: Male SD rats were fasted for 48 hrs and anesthetized by intraperitoneal injection of pentobarbital at 30 mg/kg body weight. Animals were then injected with nicotinamide (100 mg/kg, ip) and streptozotocin (65 mg/kg, iv). Four weeks later, plasma glucose concentration was determined by the glucose oxidase method (Chemistry Analyzer; Autoanalyzer Quik-Lab., Ames, Spain). Animals with fasting blood sugar levels around 200 mg/dl and the development of an obese phenotype are classified as being induced to NIDDM. Normal, IDDM, and NIDDM SD rats were fasted for 8 hrs and anesthetized by pentobarbital (30 mg/kg, ip). Animals were fed with different dosages of resveratrol (0.05 mg, 0.1 mg, or 0.5 mg per kg body weight), and blood samples were then collected from femoral vein at the time points 0, 60, 90, and 120 min. Ten μl plasma was mixed with 1 ml glucose kit reagent and incubated at 37° C. for 10 min. The blood sugar level was determined as described. Data were expressed as mean±standard error (S.E.). […] NIDDM rats were fed with resveratrol and blood sugar was then measured as described.

[1] = system: SD rats injected with insulin; experiment: Development of insulin resistance and body weight increase in insulin-injected SD rats
Experimental: A. Insulin Resistance: Male SD rats were intraperitoneally injected with insulin (Monotard®HM; Novo Nordisk, Bagsvaerd, Denmark, 0.5 IU/kg, tid) for 2 weeks. The development of insulin resistance is confirmed by a tolbutamide test (11). Male SD rats were intraperitoneally injected with insulin at 0.5 IU/kg, tid with or without resveratrol feeding (0.5 mg/kg BW, bid) Animals without resveratrol feeding started to develop insulin resistance on day 16.5±1.5. In contrast, development of insulin resistance in the resveratrol-fed animals was delayed till 23.5±1.5 days. In addition, resveratrol reduced the body weight increase by 6% compared with the untreated insulin-resistant animals (FIG. 6)

IDDM SD rats = experiment: Antihyperglycemic effect in IDDM SD rats (STZ-induced); details: 90 min after drug feeding
Experimental: Resveratrol was first dissolved in DMS0 and diluted to 0.05 mg, 0.1 mg and 0.5 mg per ml wit normal saline. Animals were fed with desired amounts of drug solutions though tubing from the mouth into the stomach. Male rats were fasted for […] and anesthetized by intraperitoneal injection of pentobarbital at 30 mg/kg body weight. Animals were then injected with freshly prepared streptozotocin (STZ) solution at 65 mg/kg body weight intravenously. Three days later, blood sugar was measured. Animals with blood sugar levels above 400 mg/dl and symptoms of polyphagia, polyuria and polydipsia are classified as being induced to IDDM. Normal, IDDM, and NIDDM SD rats were fasted for 8 hrs and anesthetized by pentobarbital (30 mg/kg, ip). Animals were fed with different dosages of resveratrol (0.05 mg, 0.1 mg, or 0.5 mg per kg body weight), and blood samples were then collected from femoral vein at the time points 0, 60, 90, and 120 min. Ten μl plasma was mixed with 1 ml glucose kit reagent and incubated at 37° C. for 10 min. The blood sugar level was determined as described. Data were expressed as mean±standard error (S.E.). […] IDDM SD rats were fed with resveratrol at 0.05 mg, 0.1 mg, or 0.5 mg per kg body weight and the blood sugar was measured at 90 min after drug feeding.

[2] = system: NIDDM insulin-resistant SD rats; experiment: Antihyperglycemic effect in NIDDM insulin-resistant SD rats (insulin-induced)
Experimental: Resveratrol was first dissolved in DMS0 and diluted to 0.05 mg, 0.1 mg and 0.5 mg per ml wit normal saline. Animals were fed with desired amounts of drug solutions though tubing from the mouth into the stomach. A. Insulin Resistance: Male SD rats were intraperitoneally injected with insulin (Monotard®HM; Novo Nordisk, Bagsvaerd, Denmark, 0.5 IU/kg, tid) for 2 weeks. The development of insulin resistance is confirmed by a tolbutamide test (11). Normal, IDDM, and NIDDM SD rats were fasted for 8 hrs and anesthetized by pentobarbital (30 mg/kg, ip). Animals were fed with different dosages of resveratrol (0.05 mg, 0.1 mg, or 0.5 mg per kg body weight), and blood samples were then collected from femoral vein at the time points 0, 60, 90, and 120 min. Ten μl plasma was mixed with 1 ml glucose kit reagent and incubated at 37° C. for 10 min. The blood sugar level was determined as described. […]. Data were expressed as mean±standard error (S.E.). Statistical analysis was performed using ANOVA (analysis of variance) followed by Dunnett test, and the significant difference was set at P<0.05. NIDDM rats were fed with resveratrol and blood sugar was then measured as described.

## Oc1ccc(C=Cc2cc(O)cc(O)c2)cc1 [resveratrol]
Normal SD rats; 0.1 mg/kg oral
  reduction of blood sugar: 25.72±4.03%
Normal SD rats; 0.5 mg/kg oral
  reduction of blood sugar: 35.53±2.0%
Normal SD rats; normal SD rats, 0.05, 0.1, 0.5 mg/kg oral, 90 min
  blood sugar reduction, dose dependence: dose-dependent manner
NIDDM SD rats
  reduction of blood sugar: 28.3±1.67%
[1]; insulin 0.5 IU/kg ip tid with resveratrol feeding 0.5 mg/kg BW bid, without resveratrol day 16.5±1.5
  time to development of insulin resistance: 23.5 ± 1.5 days
[1]; insulin-resistant SD rats, resveratrol 0.5 mg/kg BW bid
  reduction of body weight increase compared with untreated insulin-resistant animals: 6%
IDDM SD rats; 0.1 mg/kg oral
  reduction of blood sugar: 21.00±5.84%
IDDM SD rats; 0.5 mg/kg oral
  reduction of blood sugar: 23.00±1.89%
[2]; NIDDM insulin-resistant SD rats, 0.5 mg/kg oral, 90 min after drug feeding
  reduction of blood sugar: 32.1±1.62%
[2]; NIDDM insulin-resistant rats, oral
  hypoglycemic effect, dose dependence: dose-dependent hypoglycemic effect
